Measured values from patent publication US20060073189A1, “Chewing gums, lozenges, candies, tablets, liquids, and sprays for efficient delivery of medications and dietary supplements” (priority 2000, published 2006).

Assay: pKa and ionisation of active ingredients
Format: physicochemical
Details: at a pH of 8.3

Work on `CN(C)CCOC(c1ccccc1)c1ccccc1` [diphenhydramine] yielded an ionized of 50%.
